From ChEMBL document CHEMBL2311510, “A new single-photon emission computed tomography (SPECT) imaging agent for serotonin transporters: [(125)I]Flip-IDAM, (2-((2-((dimethylamino)methyl)-4-iodophenyl)thio)phenyl)methanol” (Bioorg Med Chem Lett, 2013)

Key:
Nucleic Acid [1] = assay: Ratio of drug level in rest of brain region to cerebellum in Sprague-Dawley rat at 11 uCi, iv measured 120 mins post compound dose; type: ADME, organism-based; details: in vivo, 2 h
Nucleic Acid [2] = assay: Ratio of drug level in cortex to cerebellum in Sprague-Dawley rat at 11 uCi, iv measured 60 mins post compound dose; type: ADME, organism-based; details: in vivo, 1 h
Blood [3] = assay: Biodistribution in Sprague-Dawley rat blood at 11 uCi, iv measured 30 mins post compound dose; type: ADME, organism-based; details: in vivo, 0.5 h
Bone = assay: Biodistribution in Sprague-Dawley rat bone at 11 uCi, iv measured 2 mins post compound dose; type: ADME, organism-based, Bone element; details: in vivo
Pancreas [4] = assay: Biodistribution in Sprague-Dawley rat pancreas assessed as compound level per organ at 11 uCi, iv measured 2 mins post compound dose; type: ADME, organism-based; details: in vivo
Striatum = assay: Biodistribution in Sprague-Dawley rat striatum at 11 uCi, iv measured 120 mins post compound dose; type: ADME, organism-based; details: in vivo, 2 h
Cortex = assay: Biodistribution in Sprague-Dawley rat cortex at 11 uCi, iv measured 60 mins post compound dose; type: ADME, organism-based; details: in vivo, 1 h
Muscle tissue [5] = assay: Biodistribution in Sprague-Dawley rat muscle at 11 uCi, iv measured 2 mins post compound dose; type: ADME, organism-based; details: in vivo
Brain [6] = assay: Biodistribution in Sprague-Dawley rat brain assessed as compound level per organ at 11 uCi, iv measured 60 mins post compound dose; type: ADME, organism-based; details: in vivo, 1 h
Blood [7] = assay: Biodistribution in Sprague-Dawley rat blood assessed as compound level per organ at 11 uCi, iv measured 2 mins post compound dose; type: ADME, organism-based; details: in vivo
Hippocampus = assay: Biodistribution in Sprague-Dawley rat hippocampus at 11 uCi, iv measured 120 mins post compound dose; type: ADME, organism-based; details: in vivo, 2 h
Nucleic Acid [8] = assay: Ratio of drug level in striatum to cerebellum in Sprague-Dawley rat at 11 uCi, iv measured 30 mins post compound dose; type: ADME, organism-based; details: in vivo, 0.5 h
Pancreas [9] = assay: Biodistribution in Sprague-Dawley rat pancreas assessed as compound level per organ at 11 uCi, iv measured 30 mins post compound dose; type: ADME, organism-based; details: in vivo, 0.5 h
Muscle tissue [10] = assay: Biodistribution in Sprague-Dawley rat muscle assessed as compound level per organ at 11 uCi, iv measured 2 mins post compound dose; type: ADME, organism-based; details: in vivo
Cerebellum [11] = assay: Biodistribution in Sprague-Dawley rat cerebellum at 11 uCi, iv measured 120 mins post compound dose; type: ADME, organism-based; details: in vivo, 2 h
Pancreas [12] = assay: Biodistribution in Sprague-Dawley rat pancreas at 11 uCi, iv measured 30 mins post compound dose; type: ADME, organism-based; details: in vivo, 0.5 h
Cerebellum [13] = assay: Biodistribution in Sprague-Dawley rat cerebellum at 11 uCi, iv measured 2 mins post compound dose; type: ADME, organism-based; details: in vivo
Heart = assay: Biodistribution in Sprague-Dawley rat heart assessed as compound level per organ at 11 uCi, iv measured 120 mins post compound dose; type: ADME, organism-based; details: in vivo, 2 h
Brain [14] = assay: Biodistribution in Sprague-Dawley rat brain at 11 uCi, iv measured 120 mins post compound dose; type: ADME, organism-based; details: in vivo, 2 h
Nucleic Acid [15] = assay: Ratio of drug level in hippocampus to cerebellum in Sprague-Dawley rat at 11 uCi, iv measured 60 mins post compound dose; type: ADME, organism-based; details: in vivo, 1 h
Nucleic Acid [16] = assay: Ratio of drug level in rest of brain region to cerebellum in Sprague-Dawley rat at 11 uCi, iv measured 2 mins post compound dose; type: ADME, organism-based; details: in vivo
Brain [17] = assay: Biodistribution in Sprague-Dawley rat rest of brain at 11 uCi, iv measured 60 mins post compound dose; type: ADME, organism-based; details: in vivo, 1 h
Spleen = assay: Biodistribution in Sprague-Dawley rat spleen at 11 uCi, iv measured 2 mins post compound dose; type: ADME, organism-based; details: in vivo
Kidney [18] = assay: Biodistribution in Sprague-Dawley rat kidney assessed as compound level per organ at 11 uCi, iv measured 2 mins post compound dose; type: ADME, organism-based; details: in vivo
Nucleic Acid [19] = assay: Ratio of drug level in cortex to cerebellum in Sprague-Dawley rat at 11 uCi, iv measured 30 mins post compound dose; type: ADME, organism-based; details: in vivo, 0.5 h
Kidney [20] = assay: Biodistribution in Sprague-Dawley rat kidney at 11 uCi, iv measured 60 mins post compound dose; type: ADME, organism-based; details: in vivo, 1 h
Liver = assay: Biodistribution in Sprague-Dawley rat liver at 11 uCi, iv measured 2 mins post compound dose; type: ADME, organism-based; details: in vivo
Muscle tissue [21] = assay: Biodistribution in Sprague-Dawley rat muscle assessed as compound level per organ at 11 uCi, iv measured 60 mins post compound dose; type: ADME, organism-based; details: in vivo, 1 h
Blood [22] = assay: Biodistribution in Sprague-Dawley rat blood assessed as compound level per organ at 11 uCi, iv measured 30 mins post compound dose; type: ADME, organism-based; details: in vivo, 0.5 h

- Ratio (Nucleic Acid [1]): 1.18
- Ratio (Nucleic Acid [2]): 1.69
- Drug uptake (Blood [3]): 0.36 % ID/g
- Drug uptake (Bone): 0.6 % ID/g
- Drug uptake (Pancreas [4]): 0.6 %ID
- Drug uptake (Striatum): 0.1 % ID/g
- Drug uptake (Cortex): 0.2 % ID/g
- Drug uptake (Muscle tissue [5]): 0.26 % ID/g
- Drug uptake (Brain [6]): 0.31 %ID
- Drug uptake (Blood [7]): 6.43 %ID
- Drug uptake (Hippocampus): 0.08 % ID/g
- Ratio (Nucleic Acid [8]): 3.13
- Drug uptake (Pancreas [9]): 0.26 %ID
- Drug uptake (Muscle tissue [10]): 21.9 %ID
- Drug uptake (Cerebellum [11]): 0.05 % ID/g
- Drug uptake (Pancreas [12]): 0.56 % ID/g
- Drug uptake (Cerebellum [13]): 1.5 % ID/g
- Drug uptake (Heart): 0.12 %ID
- Drug uptake (Brain [14]): 0.06 % ID/g
- Ratio (Nucleic Acid [15]): 1.83
- Ratio (Nucleic Acid [16]): 0.75
- Drug uptake (Brain [17]): 0.13 % ID/g
- Drug uptake (Spleen): 1.61 % ID/g
- Drug uptake (Kidney [18]): 4.61 %ID
- Ratio (Nucleic Acid [19]): 0.82
- Drug uptake (Kidney [20]): 0.72 % ID/g
- Drug uptake (Liver): 1.23 % ID/g
- Drug uptake (Muscle tissue [21]): 11 %ID
- Drug uptake (Blood [22]): 5.07 %ID
SMILES: CN(C)Cc1cc([125I])ccc1Sc1ccccc1CO
